Experimental findings from ChEMBL document CHEMBL1147563, “Solid-phase synthesis and SAR of 4-carboxy-2-azetidinone mechanism-based tryptase inhibitors” (Bioorg Med Chem Lett, 2004) are described below.

The target of one assay is Tryptase (Homo sapiens, UniProt Q9BZJ3+Q15661+Q9NRR2). The experiment in a line: Inhibitory activity against human tryptase.
Another assay concerns the target T1, Serine protease 1 (Bos taurus, UniProt P00760).
T1 sequence (P00760 whole entry): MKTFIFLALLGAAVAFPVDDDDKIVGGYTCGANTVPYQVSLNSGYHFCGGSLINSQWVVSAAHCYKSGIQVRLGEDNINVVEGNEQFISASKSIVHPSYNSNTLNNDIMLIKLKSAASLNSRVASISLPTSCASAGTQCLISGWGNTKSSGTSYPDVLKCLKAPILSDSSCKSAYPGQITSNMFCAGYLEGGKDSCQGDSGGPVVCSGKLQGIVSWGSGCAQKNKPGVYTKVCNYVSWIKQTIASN
The experiment in a line: Inhibitory activity against bovine trypsin.

Take `N=C(N)N1CCC[C@H](C[C@H]2C(=O)N(C(=O)N3CCN(C(=O)CCCCCc4ccccc4)CC3)[C@@H]2C(=O)O)C1`: the IC50 stood at 1.7 nM at Tryptase and 5760 nM on Serine protease 1.

Turning to `O=C(O)C1[C@@H](CC2CCNCC2)C(=O)N1C(=O)N1CCN(C(=O)Cc2ccc(Oc3ccccc3)cc2)CC1` (single isomer, unassigned), the IC50 against Tryptase turned out to be 5 nM; on Serine protease 1 it was 950 nM.

With `COc1cccc(CCC(=O)N2CCN(C(=O)N3C(=O)[C@H](CC4CCNCC4)C3C(=O)O)CC2)c1` (single isomer, unassigned), the half-inhibitory concentration (IC50) at Tryptase was determined as 14 nM; at Serine protease 1, 810 nM.

Take `O=C(O)C1[C@@H](CC2CCNCC2)C(=O)N1C(=O)N1CCN(C(=O)Cc2cccc(Oc3ccccc3)c2)CC1` (single isomer, unassigned): the IC50 against Tryptase came to 17 nM; against Serine protease 1 it was 970 nM.

In the case of `O=C(O)C1[C@@H](CC2CCNCC2)C(=O)N1C(=O)N1CCN(C(=O)CCCCCCc2ccccc2)CC1` (single isomer, unassigned), the IC50 on Tryptase is 5 nM; on Serine protease 1 it was 1300 nM.

On to `Cc1cccc(CCC(=O)N2CCN(C(=O)N3C(=O)[C@H](CC4CCNCC4)C3C(=O)O)CC2)c1` (single isomer, unassigned), for which the values for the IC50 on Tryptase and against Serine protease 1 were 13 nM and 1200 nM, respectively.

Consider `O=C(NCCCC(=O)N1CCN(C(=O)N2C(=O)[C@H](CC3CCNCC3)C2C(=O)O)CC1)OCc1ccccc1` (single isomer, unassigned), for which the figures for the IC50 against Tryptase and against Serine protease 1 were 6 nM and 1200 nM, respectively.

Regarding `Cc1ccc(C2=CN=C(CCC(=O)N3CCN(C(=O)N4C(=O)[C@H](CC5CCNCC5)C4C(=O)O)CC3)C2=O)cc1` (single isomer, unassigned), the IC50 against Tryptase was found to be 5 nM; against Serine protease 1, 1800 nM.

Regarding `O=C(O)C1[C@@H](CC2CCNCC2)C(=O)N1C(=O)N1CCN(C(=O)CCCCCCCc2ccccc2)CC1` (single isomer, unassigned), the IC50 against Tryptase was found to be 5 nM; on Serine protease 1, 1300 nM.

Regarding `O=C(CCC(=O)N1CCN(C(=O)N2C(=O)[C@H](CC3CCNCC3)C2C(=O)O)CC1)NCCc1ccccc1` (single isomer, unassigned), the IC50 came out at 17 nM on Tryptase and 1900 nM at Serine protease 1.

Consider `O=C(O)C1[C@@H](CC2CCNCC2)C(=O)N1C(=O)N1CCN(C(=O)c2ccc(CCCc3ccccc3)cc2)CC1` (single isomer, unassigned), for which the IC50 came to 6 nM against Tryptase and 310 nM against Serine protease 1.

Take `O=C(O)C1[C@@H](CC2CCNCC2)C(=O)N1C(=O)N1CCN(C(=O)CCCc2ccc3ccccc3c2)CC1` (single isomer, unassigned): the IC50 at Tryptase was 10 nM; at Serine protease 1, 600 nM.

Take `O=C(O)C1[C@@H](CC2CCNCC2)C(=O)N1C(=O)N1CCN(C(=O)c2ccc(OCc3ccccc3)cc2)CC1` (single isomer, unassigned): the IC50 is 4 nM against Tryptase and 120 nM against Serine protease 1.

On to `O=C(CCCC(=O)N1CCN(C(=O)N2C(=O)[C@H](CC3CCNCC3)C2C(=O)O)CC1)Nc1ccccc1` (single isomer, unassigned), for which the IC50 on Tryptase was 12 nM; at Serine protease 1 it was 1350 nM.

Regarding `O=C(O)C1[C@@H](CC2CCNCC2)C(=O)N1C(=O)N1CCN(C(=O)Cc2ccc(-c3ccccc3)cc2)CC1` (single isomer, unassigned), the IC50 at Tryptase came out at 5 nM; at Serine protease 1, 740 nM.

Consider `O=C(O)C1[C@@H](CC2CCNCC2)C(=O)N1C(=O)N1CCN(C(=O)CCCCCc2cccc3ccccc23)CC1` (single isomer, unassigned), for which the results for the IC50 against Tryptase and at Serine protease 1 were 1 nM and 240 nM, respectively.

In the case of `CCCCCCc1ccc(-c2ccc(C(=O)N3CCN(C(=O)N4C(=O)[C@H](CC5CCNCC5)C4C(=O)O)CC3)cc2)cc1` (single isomer, unassigned), the IC50 against Tryptase was 120 nM; against Serine protease 1, 1200 nM.

`O=C(O)C1[C@@H](CC2CCNCC2)C(=O)N1C(=O)N1CCN(C(=O)c2ccc(-c3ccccc3)cc2)CC1` (single isomer, unassigned): the IC50 was 6 nM on Tryptase and 120 nM at Serine protease 1.

Usually IC50 stands for the concentration at which inhibition is half-maximal. A high value points to a need for much substance.
